Literature values, collected in PubChem BioAssay AID1259409 (Chemical Carcinogenesis Research Information System (CCRIS), 2018).

Tested on: rodent chemically induced tumor inhibition, incidence and multiplicity
Assay: CCRIS tumor inhibitor studies

## Oc1ccccc1O
Carcinogen: 3,2'-DIMETHYL-4-AMINOBIPHENYL, 13394-86-0, Dose [Inhibitor]: 0, 0.8% IN BASAL DIET BEGINNING POST CARCINOGEN TREATMENT AND CONTINUING FOR 40 (STUDY DURATION: 60 WK), Route [Inhibitor]: ORAL, Species: RAT, Strain/Sex: F344/MALE, Target Tissue: Type of Lesion: SUBCUTIS: TUMOR, Dose [Carcinogen]: 50 MG/KG 1/2 WK FOR 20 WK TO RATS MAINTAINED ON ETHINYL ESTRADIOL CONTAINING DIET (0.75 PPM) FOR 1 WK CYCLED WITH ETHINY, Promoter: ETHINYL ESTRADIOL, 57-63-6
  tumour outcome (control, treated, inhibition, significance): 1/10 (10%), 1/11 (9%), 10%, not significant
Carcinogen: 3,2'-DIMETHYL-4-AMINOBIPHENYL, 13394-86-0, Dose [Inhibitor]: 0, 0.8% IN BASAL DIET BEGINNING POST CARCINOGEN TREATMENT AND CONTINUING FOR 40 WK (STUDY DURATION: 60 WK), Route [Inhibitor]: ORAL, Species: RAT, Strain/Sex: F344/MALE, Target Tissue: Type of Lesion: LARGE INTESTINE: ADENOMA AND ADENOCARCINOMA, Dose [Carcinogen]: 50 MG/KG 1/2 WK FOR 20 WK TO RATS MAINTAINED ON ETHINYL ESTRADIOL CONTAINING DIET (0.75 PPM) FOR 1 WK CYCLED WITH ETHINY, Promoter: ETHINYL ESTRADIOL, 57-63-6
  tumour outcome (control, treated, inhibition, significance): 3/10 (30%), 5/11 (45%), -50%, not significant
Carcinogen: 3,2'-DIMETHYL-4-AMINOBIPHENYL, 13394-86-0, Dose [Inhibitor]: 0, 0.8% IN BASAL DIET BEGINNING POST CARCINOGEN TREATMENT AND CONTINUING FOR 40 WK (STUDY DURATION: 60 WK), Route [Inhibitor]: ORAL, Species: RAT, Strain/Sex: F344/MALE, Target Tissue: Type of Lesion: PANCREAS: ACINAR CELL NODULE, Dose [Carcinogen]: 50 MG/KG 1/2 WK FOR 20 WK TO RATS MAINTAINED ON ETHINYL ESTRADIOL CONTAINING DIET (0.75 PPM) FOR 1 WK CYCLED WITH ETHINY, Promoter: ETHINYL ESTRADIOL, 57-63-6
  tumour outcome (control, treated, inhibition, significance): 4/10 (40%), 4/11 (36%), 10%, not significant
Carcinogen: 3,2'-DIMETHYL-4-AMINOBIPHENYL, 13394-86-0, Dose [Inhibitor]: 0, 0.8% IN BASAL DIET BEGINNING POST CARCINOGEN TREATMENT AND CONTINUING FOR 40 WK (STUDY DURATION: 60 WK), Route [Inhibitor]: ORAL, Species: RAT, Strain/Sex: F344/MALE, Target Tissue: Type of Lesion: PREPUTIAL GLAND: ADENOMA AND CARCINOMA, Dose [Carcinogen]: 50 MG/KG 1/2 WK FOR 20 WK TO RATS MAINTAINED ON ETHINYL ESTRADIOL CONTAINING DIET (0.75 PPM) FOR 1 WK CYCLED WITH ETHINY, Promoter: ETHINYL ESTRADIOL, 57-63-6
  tumour outcome (control, treated, inhibition, significance): 5/10 (50%), 4/11 (36%), 28%, not significant
Carcinogen: 3,2'-DIMETHYL-4-AMINOBIPHENYL, 13394-86-0, Dose [Inhibitor]: 0, 0.8% IN BASAL DIET BEGINNING POST CARCINOGEN TREATMENT AND CONTINUING FOR 40 WK (STUDY DURATION: 60 WK), Route [Inhibitor]: ORAL, Species: RAT, Strain/Sex: F344/MALE, Target Tissue: Type of Lesion: PROSTATE: CARCINOMA, Dose [Carcinogen]: 50 MG/KG 1/2 WK FOR 20 WK TO RATS MAINTAINED ON ETHINYL ESTRADIOL CONTAINING DIET (0.75 PPM) FOR 1 WK CYCLED WITH ETHINY, Promoter: ETHINYL ESTRADOL, 57-63-6
  tumour outcome (control, treated, inhibition, significance): 5/10 (50%), 3/11 (27%), 46%, not significant
Carcinogen: 3,2'-DIMETHYL-4-AMINOBIPHENYL, 13394-86-0, Dose [Inhibitor]: 0, 0.8% IN BASAL DIET BEGINNING POST CARCINOGEN TREATMENT AND CONTINUING FOR 40 WK (STUDY DURATION: 60 WK), Route [Inhibitor]: ORAL, Species: RAT, Strain/Sex: F344/MALE, Target Tissue: Type of Lesion: SMALL INTESTINE: ADENOMA AND ADENOCARCINOMA, Dose [Carcinogen]: 50 MG/KG 1/2 WK FOR 20 WK TO RATS MAINTAINED ON ETHINYL ESTRADIOL CONTAINING DIET (0.75 PPM) FOR 1 WK CYCLED WITH ETHINY, Promoter: ETHINYL ESTRADIOL, 57-63-6
  tumour outcome (control, treated, inhibition, significance): 2/10 (20%), 1/11 (9%), 55%, not significant
Carcinogen: 3,2-DIMETHYL-4-AMINOBIPHENYL, 13394-86-0, Dose [Inhibitor]: 0, 0.8% IN BASAL DIET BEGINNING POST CARCINOGEN TREATMENT AND CONTINUING FOR 40 WK (STUDY DURATION: 60 WK), Route [Inhibitor]: ORAL, Species: RAT, Strain/Sex: F344/MALE, Target Tissue: Type of Lesion: ZYMBAL GLAND: ADENOMA AND CARCINOMA, Dose [Carcinogen]: 50 MG/KG 1/2 WK FOR 20 WK TO RATS MAINTAINED ON ETHINYL ESTRADIOL CONTAINING DIET (0.75 PPM) FOR 1 WK CYCLED WITH ETHINY, Promoter: ETHINYL ESTRADIOL, 57-63-6
  tumour outcome (control, treated, inhibition, significance): 2/10 (20%), 0/11 (0%), 100%, not significant
Carcinogen: 7,12-DIMETHYLBENZ[A]ANTHRACENE, 57-97-6, Dose [Inhibitor]: 0, 0.4% IN DIET FOR 35 WK BEGINNING POST CARCINOGEN DOSE (STUDY DURATION: 36 WK), Route [Inhibitor]: ORAL, Species: RAT, Strain/Sex: SPRAGUE-DAWLEY/FEMALE, Target Tissue: Type of Lesion: EAR DUCT: TUMOR, Dose [Carcinogen]: 50 MG/KG BW IN CORN OIL ONCE, Promoter: NONE USED
  tumour outcome (control, treated, inhibition, significance): 5/15 (33%), 2/15 (13%), 61%, not significant
Carcinogen: 7,12-DIMETHYLBENZ[A]ANTHRACENE, 57-97-6, Dose [Inhibitor]: 0, 0.4% IN DIET FOR 35 WK BEGINNING POST CARCINOGEN DOSE (STUDY DURATION: 36 WK), Route [Inhibitor]: ORAL, Species: RAT, Strain/Sex: SPRAGUE-DAWLEY/FEMALE, Target Tissue: Type of Lesion: MAMMARY GLAND: ADENOCARCINOMA, Dose [Carcinogen]: 50 MG/KG BW IN CORN OIL ONCE, Promoter: NONE USED
  tumour outcome (control, treated, inhibition, significance): 14/15 (93%), 15/15 (100%), -8%, not significant
Carcinogen: 7,12-DIMETHYLBENZ[A]ANTHRACENE, 57-97-6, Dose [Inhibitor]: 0, 0.4% IN DIET FOR 35 WK BEGINNING POST CARCINOGEN DOSE (STUDY DURATION: 36 WK), Route [Inhibitor]: ORAL, Species: RAT, Strain/Sex: SPRAGUE-DAWLEY/FEMALE, Target Tissue: Type of Lesion: MAMMARY GLAND: FIBROADENOMA, Dose [Carcinogen]: 50 MG/KG BW IN CORN OIL ONCE, Promoter: NONE USED
  tumour outcome (control, treated, inhibition, significance): 3/15 (20%), 0/15 (0%), 100%, not significant
Carcinogen: 7,12-DIMETHYLBENZ[A]ANTHRACENE, 57-97-6, Dose [Inhibitor]: 0, 12 MG 2/WK FOR 30 WK APPLIED 20 MIN PRIOR TO EACH PROMOTER DOSE (STUDY DURATION: 32 WK), Route [Inhibitor]: DERMAL, Species: MOUSE, Strain/Sex: SENCAR/FEMALE, Target Tissue: Type of Lesion: SKIN: PAPILLOMA, Dose [Carcinogen]: 25 NMOL ONCE, Promoter: M-CHLOROPEROXYBENZOIC ACID, 937-14-4
  tumour outcome (control, treated, inhibition, significance): 39%, 0%, 100%, not calculated
Carcinogen: BENZO[A]PYRENE, 50-32-8, Dose [Inhibitor]: 2 MG IN 0.1 ML ACETONE 3/WK ADMINISTERED SIMULTANEOUSLY WITH CARCINOGEN FOR DURATION OF STUDY (STUDY DURATION: 368 D), Route [Inhibitor]: DERMAL, Species: MOUSE, Strain/Sex: ICR/FEMALE, Target Tissue: Type of Lesion: SKIN: PAPILLOMA, Dose [Carcinogen]: 5 UG IN 0.1 ML ACETONE 3/WK FOR DURATION OF STUDY, Promoter: NONE USED
  tumour outcome (control, treated, inhibition, significance): 14/50 (28%), 36/50 (72%), -157%, not calculated
Carcinogen: BENZO[A]PYRENE, 50-32-8, Dose [Inhibitor]: 2 MG IN 0.1 ML ACETONE 3/WK ADMINISTERED SIMULTANEOUSLY WITH CARCINOGEN FOR DURATION OF STUDY (STUDY DURATION: 368 D), Route [Inhibitor]: DERMAL, Species: MOUSE, Strain/Sex: ICR/FEMALE, Target Tissue: Type of Lesion: SKIN: SQUAMOUS CARCINOMA, Dose [Carcinogen]: 5 UG IN 0.1 ML ACETONE 3/WK FOR DURATION OF STUDY, Promoter: NONE USED
  tumour outcome (control, treated, inhibition, significance): 10/50 (20%), 31/50 (62%), -210%, not calculated
Carcinogen: N-BIS(2-HYDROXYPROPYL)NITROSAMINE, 53609-64-6, Dose [Inhibitor]: 0, 0.8% IN DIET FOR 30 WK BEGINNING POST CARCINOGEN TREATMENT (STUDY DURATION: 32 WK), Route [Inhibitor]: ORAL, Species: RAT, Strain/Sex: F344/MALE, Target Tissue: Type of Lesion: BLADDER: ADENOMA, Dose [Carcinogen]: 0.1% IN DRINKING WATER FOR 2 WK, Promoter: NONE USED
  tumour outcome (control, treated, inhibition, significance): 5%, 0%, 100%, not calculated
